# Laboratory results reported in publication PMC12629513 (Nature, 2024).
# Where two headings read alike, the source gives them in different places.
# Experiments:
# [1] = target: VN1203-H5N1 neuraminidase (NA) (Influenza A virus, UniProt Q6DPL2); assay: biochemical; parameters: species or system A/Vietnam/1203/2004 (H5N1)
# TX001-H5N1 wild-type = type: cell-based, A/dairy cattle/Texas/24–008749-001/2024 (H5N1)
# VN1203-H5N1 = assay: microbe, parasite or virus in culture; type: cell-based, A/Vietnam/1203/2004 (H5N1); details: read-out: IC50 of polymerase inhibitor
# wild-type TX001-H5N1 = details: mouse
# [2] = target: TX001-H5N1 wild-type neuraminidase (NA) (Influenza A virus, UniProt D0G890); type: biochemical, A/dairy cattle/Texas/24–008749-001/2024 (H5N1)
# [3] = read-out: IC50 of neuraminidase inhibitors
compound,measurement,setting,value
CO[C@@H]([C@@H]1OC(C(=O)O)=C[C@H](NC(=N)N)[C@H]1NC(C)=O)[C@H](O)CO [Laninamivir],IC50,[1],0.41 ± 0.03 nM
O=C1c2c(O)c(=O)ccn2N([C@@H]2c3ccccc3SCc3c2ccc(F)c3F)[C@@H]2COCCN12 [Baloxavir acid],IC50,TX001-H5N1 wild-type; read-out: IC50 of polymerase inhibitor,0.61 ± 0.12 nM
same,IC50,VN1203-H5N1,1.25 ± 0.75 nM
NC(=O)c1nc(F)c[nH]c1=O [Favipiravir],Effectiveness of polymerase inhibitor in vitro,TX001-H5N1 wild-type,highly effective
same,IC50,"VN1203-H5N1; Influenza A virus, H5N1, MDCK, 48 h",1.65 ± 0.15 µg/mL
same,"Effectiveness in vivo (body weight, survival, virus titres)",wild-type TX001-H5N1; po,highly effective
CCOC(=O)C1=C[C@@H](OC(CC)CC)[C@H](NC(C)=O)[C@@H](N)C1 [oseltamivir phosphate],"Protection against body weight loss, viral replication in tissues, or survival","wild-type TX001-H5N1; in vivo, po",Minimal protection
COC(=O)OCOc1c2n(ccc1=O)N([C@@H]1c3ccccc3SCc3c1ccc(F)c3F)[C@@H]1COCCN1C2=O [baloxavir marboxil],Effectiveness of polymerase inhibitor in vitro,TX001-H5N1 wild-type,highly effective
same,"Effectiveness in vivo (body weight, survival, virus titres)",wild-type TX001-H5N1; po,highly effective
CC(=O)N[C@H]1[C@H]([C@H](O)[C@H](O)CO)OC(C(=O)O)=C[C@@H]1N=C(N)N [Zanamivir],Antiviral sensitivity to NA inhibitor in vitro (interpretation),[2],sensitive
same,Effect on body weight loss and death,wild-type TX001-H5N1; in vivo,delayed body weight loss and death
same,"Effect on virus titres in lung, nasal turbinate and brain",wild-type TX001-H5N1; in vivo,"significantly reduced virus titres in lung, nasal turbinate and brain"
same,Protection against lethality,wild-type TX001-H5N1; in vivo,did not protect against lethality
CCC(CC)[C@H](NC(C)=O)[C@@H]1[C@H](O)[C@@H](C(=O)O)C[C@H]1N=C(N)N [Peramivir],IC50,[2]; [3],0.195 ± 0.015 nM
same,IC50,[1]; [3],0.24 ± 0.03 nM
